According to ChEMBL document CHEMBL1201862, “PubChem BioAssay data set” (2004):
Structures can show the parent of a compound that is named as a salt. Calls of active or inactive are those of the source.

Assays:
[1] = biological target: T1, Sentrin-specific protease 7 (Homo sapiens, UniProt Q9BQF6); assay type: functional;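 further: Luminescence-based dose-response confirmation of ultra-high-throughput screening hits, measuring inhibition of SENP7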
T1 sequence (Q9BQF6 whole entry): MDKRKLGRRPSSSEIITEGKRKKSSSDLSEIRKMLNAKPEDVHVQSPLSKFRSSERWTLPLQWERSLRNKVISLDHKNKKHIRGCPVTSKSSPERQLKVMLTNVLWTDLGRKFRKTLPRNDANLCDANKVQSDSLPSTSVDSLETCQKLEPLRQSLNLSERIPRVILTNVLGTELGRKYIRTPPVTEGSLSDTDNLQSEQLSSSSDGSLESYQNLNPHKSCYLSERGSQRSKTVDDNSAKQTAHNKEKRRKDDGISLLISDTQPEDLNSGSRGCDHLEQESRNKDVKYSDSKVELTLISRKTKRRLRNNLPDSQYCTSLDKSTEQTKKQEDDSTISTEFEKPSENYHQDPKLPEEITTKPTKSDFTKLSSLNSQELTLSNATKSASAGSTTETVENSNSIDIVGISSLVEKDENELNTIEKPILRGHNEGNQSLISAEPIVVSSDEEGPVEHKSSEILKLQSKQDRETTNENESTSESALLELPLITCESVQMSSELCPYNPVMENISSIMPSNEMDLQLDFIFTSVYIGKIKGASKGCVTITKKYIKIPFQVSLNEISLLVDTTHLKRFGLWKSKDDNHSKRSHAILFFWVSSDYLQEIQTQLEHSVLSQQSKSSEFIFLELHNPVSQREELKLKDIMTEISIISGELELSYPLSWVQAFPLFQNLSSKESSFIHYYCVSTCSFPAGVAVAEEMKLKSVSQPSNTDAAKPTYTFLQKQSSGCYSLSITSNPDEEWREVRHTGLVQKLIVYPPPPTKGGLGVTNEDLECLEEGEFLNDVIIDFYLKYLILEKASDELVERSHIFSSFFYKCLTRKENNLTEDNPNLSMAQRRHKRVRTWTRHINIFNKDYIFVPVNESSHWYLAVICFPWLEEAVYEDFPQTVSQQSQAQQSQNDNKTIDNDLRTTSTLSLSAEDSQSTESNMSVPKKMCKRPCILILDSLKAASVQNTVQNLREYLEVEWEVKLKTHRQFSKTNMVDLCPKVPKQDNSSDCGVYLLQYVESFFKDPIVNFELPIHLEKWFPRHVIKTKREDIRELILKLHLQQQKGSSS

[2] = biological target: T2, Sentrin-specific protease 6 (Homo sapiens, UniProt Q9GZR1); assay type: functional;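 further: Luminescence-based dose-response confirmatory assay of SENP6 inhibition, following up an ultra-high-throughput screen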
T2 sequence (Q9GZR1 whole entry): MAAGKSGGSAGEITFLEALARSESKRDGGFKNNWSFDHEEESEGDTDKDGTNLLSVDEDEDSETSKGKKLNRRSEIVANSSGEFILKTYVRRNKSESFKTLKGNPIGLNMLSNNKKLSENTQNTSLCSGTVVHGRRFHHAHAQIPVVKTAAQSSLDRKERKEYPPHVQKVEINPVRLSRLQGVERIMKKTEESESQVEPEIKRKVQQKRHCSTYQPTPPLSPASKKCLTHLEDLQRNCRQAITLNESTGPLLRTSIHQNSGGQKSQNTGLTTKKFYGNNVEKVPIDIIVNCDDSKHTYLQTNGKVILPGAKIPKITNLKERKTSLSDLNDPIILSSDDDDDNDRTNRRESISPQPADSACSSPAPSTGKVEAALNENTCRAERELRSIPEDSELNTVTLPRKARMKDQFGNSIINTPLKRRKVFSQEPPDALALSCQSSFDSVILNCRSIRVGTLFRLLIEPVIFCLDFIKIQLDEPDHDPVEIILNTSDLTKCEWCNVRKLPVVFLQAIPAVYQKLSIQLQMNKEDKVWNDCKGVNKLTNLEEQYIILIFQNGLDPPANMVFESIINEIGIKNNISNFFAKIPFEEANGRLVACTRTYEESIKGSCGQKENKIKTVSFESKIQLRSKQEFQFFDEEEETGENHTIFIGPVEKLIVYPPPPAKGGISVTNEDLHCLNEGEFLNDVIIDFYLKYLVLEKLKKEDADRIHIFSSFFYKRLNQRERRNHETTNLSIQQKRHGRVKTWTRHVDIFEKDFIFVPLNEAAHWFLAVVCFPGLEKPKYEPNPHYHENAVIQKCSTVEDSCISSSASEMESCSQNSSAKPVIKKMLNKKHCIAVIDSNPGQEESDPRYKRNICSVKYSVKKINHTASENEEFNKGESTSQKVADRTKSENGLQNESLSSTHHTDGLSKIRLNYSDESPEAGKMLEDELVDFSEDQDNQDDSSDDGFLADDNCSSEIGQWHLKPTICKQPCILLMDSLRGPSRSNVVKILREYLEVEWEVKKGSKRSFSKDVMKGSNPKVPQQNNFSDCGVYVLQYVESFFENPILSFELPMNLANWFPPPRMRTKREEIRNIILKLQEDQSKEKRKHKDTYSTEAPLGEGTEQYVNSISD

[3] = biological target: T3, Caspase-3 (Homo sapiens, UniProt P42574); assay type: functional;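 further: Dose-response selectivity test against caspase-3 for candidate inhibitors of sentrin-specific proteases (SENPs)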
T3 sequence (P42574 whole entry): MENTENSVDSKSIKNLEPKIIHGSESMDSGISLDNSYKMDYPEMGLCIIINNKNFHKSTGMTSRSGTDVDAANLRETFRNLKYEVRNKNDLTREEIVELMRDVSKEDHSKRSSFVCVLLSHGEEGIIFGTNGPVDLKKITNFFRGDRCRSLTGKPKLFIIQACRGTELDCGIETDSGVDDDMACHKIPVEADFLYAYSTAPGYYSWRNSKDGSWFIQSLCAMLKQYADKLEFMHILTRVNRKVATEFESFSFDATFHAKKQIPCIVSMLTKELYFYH

[4] = biological target: T4, Sentrin-specific protease 8 (Homo sapiens, UniProt Q96LD8); assay type: functional;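 further: luminescence read-out of SENP8 inhibition, dose-response confirmation following an ultra-high-throughput screen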
T4 sequence (Q96LD8 whole entry): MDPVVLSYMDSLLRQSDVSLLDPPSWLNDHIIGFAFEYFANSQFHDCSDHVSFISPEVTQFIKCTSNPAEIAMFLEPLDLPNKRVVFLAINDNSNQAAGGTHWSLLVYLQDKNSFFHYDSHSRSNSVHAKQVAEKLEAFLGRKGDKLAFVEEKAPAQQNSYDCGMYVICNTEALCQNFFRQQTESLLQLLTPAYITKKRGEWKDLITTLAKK

[5] = luciferase reporter signal reduction – luminescence, H4-C neuroglioblastoma cells, dose response (AID 2458); assay type: functional, cell-based;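 further: H4 neuroglioblastoma cells stably carrying a luciferase reporter gene fusion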
[6] = biological target: T5, Nuclear receptor subfamily 0 group B member 1 (Homo sapiens, UniProt P51843); assay type: functional, cell-based;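 further: HEK293T cells transfected with SF-1 and DAX-1 plus StAR promoter luciferase reporter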
T5 sequence (P51843 whole entry): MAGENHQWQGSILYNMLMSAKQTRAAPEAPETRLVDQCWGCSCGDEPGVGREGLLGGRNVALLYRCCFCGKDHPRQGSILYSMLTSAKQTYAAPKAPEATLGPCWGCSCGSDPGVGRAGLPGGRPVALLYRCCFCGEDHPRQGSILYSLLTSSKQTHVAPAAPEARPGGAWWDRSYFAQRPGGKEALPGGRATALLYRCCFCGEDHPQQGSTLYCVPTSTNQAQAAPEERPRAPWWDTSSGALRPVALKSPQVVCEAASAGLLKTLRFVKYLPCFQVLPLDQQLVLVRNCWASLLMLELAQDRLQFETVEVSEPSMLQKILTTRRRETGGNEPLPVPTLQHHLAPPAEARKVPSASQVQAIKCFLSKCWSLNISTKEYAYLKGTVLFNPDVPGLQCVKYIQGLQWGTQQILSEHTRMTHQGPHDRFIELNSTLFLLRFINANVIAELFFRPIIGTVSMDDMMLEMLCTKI

[7] = Luminescence Cell-Based Dose Response HTS to Identify Inhibitors of 5'UTR Stem-Loop Driven Prion Protein mRNA Translation in H4 Neuroglioblastoma Cells. [Related pubchem assays: 1827 (Project Summary), 1813 (Primary HTS)]; assay type: functional
[8] = test system: BJ; experiment: growth inhibition of engineered Ras-driven BJ cells – cell-based, alamar blue fluorescence, cherrypicked samples, dose response (AID 2631); assay type: functional; conditions: Homo sapiens;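 further: confirmatory dose-response assay in RAS-dependent BJ fibroblasts engineered with TERT, LT and ST, with cytotoxicity read by fluorescence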
[9] = luciferase reporter signal suppression in cells – H4 neuroglioma cells, luminescence, dose response (AID 1990); assay type: functional, cell-based
[10] = alpha-synuclein stem-loop translation blockers – luminescence, H4 neuroglioblastoma cells, dose confirmation, confirmation (AID 2454); assay type: functional, cell-based;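 further: H4 neuroglioblastoma cells carrying an alpha-synuclein 5'UTR luciferase reporter; potency for inhibition of the luciferase signal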
[11] = cells; assay type: functional, cell-based
[12] = biological target: Paired box protein Pax-8 (Homo sapiens, UniProt Q06710); experiment: PAX8 transcriptional activity inhibition in RMG-I – RMG-I cells, luciferase, cherry-pick, dose response (AID 687027); assay type: functional, cell-based;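 further: luciferase reporter driven by Pax8 target thyroperoxidase promoter measured by SteadyGlo luminescence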
Sequence of Paired box protein Pax-8 (Q06710 whole entry): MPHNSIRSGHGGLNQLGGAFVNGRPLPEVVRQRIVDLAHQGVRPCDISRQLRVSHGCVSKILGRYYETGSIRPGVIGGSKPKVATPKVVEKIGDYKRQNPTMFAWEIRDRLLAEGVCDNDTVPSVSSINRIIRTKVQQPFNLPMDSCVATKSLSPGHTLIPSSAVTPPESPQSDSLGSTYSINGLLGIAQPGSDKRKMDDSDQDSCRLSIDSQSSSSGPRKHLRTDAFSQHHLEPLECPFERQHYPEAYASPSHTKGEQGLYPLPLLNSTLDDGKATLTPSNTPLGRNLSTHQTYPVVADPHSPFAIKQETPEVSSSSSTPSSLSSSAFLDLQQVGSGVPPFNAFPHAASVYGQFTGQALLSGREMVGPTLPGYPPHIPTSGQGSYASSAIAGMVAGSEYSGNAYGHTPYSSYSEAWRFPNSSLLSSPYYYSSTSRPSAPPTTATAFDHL

[13] = test system: BJ; experiment: cells; assay type: functional, cell-based; conditions: Homo sapiens
[14] = cells; assay type: functional, cell-based; remark: listed apart in the source
[15] = alpha-synuclein stem-loop luciferase translation blockers – H4 neuroglioma cells, luminescence, confirmation (AID 1988); assay type: functional, cell-based
[16] = DRD fibroblast viability loss – cell-based, non-viral oncogenic, luminescence, dose response (AID 1934); assay type: functional; conditions: Homo sapiens
[17] = test system: BJ; experiment: BJ-TERT fibroblast viability loss – cell-based, RAS-independent, luminescence, dose response (AID 1933); assay type: functional; conditions: Homo sapiens
[18] = test system: BJ; experiment: BJ-TERT-LT-ST fibroblast viability loss – cell-based, RAS-independent, luminescence, dose response (AID 1935); assay type: functional; conditions: Homo sapiens;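 further: BJ fibroblasts immortalized with TERT plus LT and ST oncogenes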
[19] = test system: Escherichia coli; experiment: microbe, parasite or virus in culture
[20] = toxicity toward HepG2 liver cells – cell-based, plate reader, cherry-pick, antagonist series, cytotoxicity control, dose response (AID 743416); assay type: functional
[21] = A549 cell cytotoxicity, dose response, cytotoxicity control, plate reader, cherry-pick, antagonist series (AID 743412); assay type: functional, cell-based
[22] = blockers of bursicon-stimulated LGR2 cAMP reporter – cell-based, HEK293, CRE-luciferase reporter, cherry pick, set 2, dose response (AID 743343); assay type: functional;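 further: transfected cells were stimulated with diluted bursicon conditioned medium after compound addition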
[23] = test system: Escherichia coli; experiment: microbe, parasite or virus in culture; remark: listed apart in the source
[24] = Fluorescence-based cell-based high throughput dose response assay for inhibitors of the interaction of nucleotide-binding oligomerization domain containing 2 (NOD2) and the receptor-interacting serine-threonine kinase 2 (RIPK2).; assay type: functional; conditions: Homo sapiens
[25] = blockade of melanocortin 4 receptor signaling – cell-based, plate reader, cherry pick, counter-screen for LGR2 antagonist project, dose response (AID 743444); assay type: functional;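 further: transfected HEK 293 cells stimulated with alpha-MSH peptide; potency of inhibitors of the alpha-MSH evoked signal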
[26] = viability loss in HEK293 cells – cell-based, plate reader, cherry-picked samples, cytotoxicity control, dose response (AID 743446); assay type: functional
[27] = biological target: T6, Cytochrome P450 1A2 (Homo sapiens, UniProt P05177);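 further: PubChem cytochrome P450 panel assay, CYP1A2 panel member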
T6 sequence (P05177 whole entry): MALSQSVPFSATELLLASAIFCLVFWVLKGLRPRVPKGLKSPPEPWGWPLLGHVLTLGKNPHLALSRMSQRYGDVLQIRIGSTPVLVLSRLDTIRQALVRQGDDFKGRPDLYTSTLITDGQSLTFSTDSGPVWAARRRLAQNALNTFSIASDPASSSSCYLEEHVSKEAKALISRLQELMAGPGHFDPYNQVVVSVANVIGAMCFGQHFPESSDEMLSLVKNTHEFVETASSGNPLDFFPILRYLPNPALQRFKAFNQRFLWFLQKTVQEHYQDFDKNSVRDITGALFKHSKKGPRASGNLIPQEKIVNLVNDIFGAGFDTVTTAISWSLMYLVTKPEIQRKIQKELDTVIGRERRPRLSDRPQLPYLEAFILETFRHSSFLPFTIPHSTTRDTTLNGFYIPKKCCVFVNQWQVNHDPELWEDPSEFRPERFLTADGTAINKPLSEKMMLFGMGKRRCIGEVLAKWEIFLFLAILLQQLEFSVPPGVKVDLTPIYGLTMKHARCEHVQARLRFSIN

[28] = biological target: Cytochrome P450 3A4 (Homo sapiens, UniProt P08684);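 further: CYP3A4 tested as one member of a cytochrome P450 panel screen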
Sequence of Cytochrome P450 3A4 (P08684 whole entry): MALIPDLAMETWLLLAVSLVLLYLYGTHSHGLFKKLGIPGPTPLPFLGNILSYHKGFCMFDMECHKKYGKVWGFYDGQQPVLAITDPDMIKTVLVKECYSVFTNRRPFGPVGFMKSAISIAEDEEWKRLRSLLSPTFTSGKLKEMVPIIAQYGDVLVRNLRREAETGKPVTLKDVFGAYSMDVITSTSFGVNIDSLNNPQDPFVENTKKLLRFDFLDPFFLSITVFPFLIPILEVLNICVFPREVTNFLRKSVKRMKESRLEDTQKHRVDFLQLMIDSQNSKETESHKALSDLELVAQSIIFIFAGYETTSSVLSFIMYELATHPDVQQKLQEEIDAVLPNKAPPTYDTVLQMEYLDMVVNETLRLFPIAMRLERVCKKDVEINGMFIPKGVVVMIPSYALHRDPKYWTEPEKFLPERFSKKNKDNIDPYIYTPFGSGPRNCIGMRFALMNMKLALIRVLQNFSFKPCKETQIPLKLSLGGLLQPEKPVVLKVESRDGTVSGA

[29] = biological target: Cytochrome P450 2C19 (Homo sapiens, UniProt P33261); experiment: Cytochrome panel assay with activity outcomes. Panel member name: p450-cyp2c19 Compounds with AC50 equal or less than 10 uM are considered active; assay type: functional; conditions: read-out: AC50
Sequence of Cytochrome P450 2C19 (P33261 whole entry): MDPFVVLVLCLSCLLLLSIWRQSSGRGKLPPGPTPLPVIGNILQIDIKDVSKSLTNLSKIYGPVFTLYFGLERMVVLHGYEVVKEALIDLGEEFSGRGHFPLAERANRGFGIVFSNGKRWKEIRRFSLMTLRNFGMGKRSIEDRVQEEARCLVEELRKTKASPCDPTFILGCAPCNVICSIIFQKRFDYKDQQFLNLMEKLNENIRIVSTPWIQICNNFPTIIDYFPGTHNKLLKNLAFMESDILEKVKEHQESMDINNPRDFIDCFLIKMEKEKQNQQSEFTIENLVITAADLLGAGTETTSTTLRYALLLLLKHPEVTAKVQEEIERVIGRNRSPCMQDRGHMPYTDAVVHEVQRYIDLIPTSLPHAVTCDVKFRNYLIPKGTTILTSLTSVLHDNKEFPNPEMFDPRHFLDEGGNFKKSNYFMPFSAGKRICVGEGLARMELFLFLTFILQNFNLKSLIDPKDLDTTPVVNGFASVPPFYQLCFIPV

[30] = test system: Streptococcus sp. 'group A'; experiment: Streptococcus pyogenes SK(-)GAS viability under kanamycin – luminescence, BacTiterGlo, confirmation, counter-screen for streptokinase expression inhibitor project, dose response (AID 1900); assay type: functional, organism-based
[31] = test system: Streptococcus; experiment: GAS UMAA2166 growth inhibition – luminescence, BacTiterGlo, counter-screen for streptokinase expression inhibitor project, dose response (AID 1915); assay type: functional, organism-based;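 further: potency for reduction of bacterial viability or growth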

Compound: COc1ccc2nc(NC(=O)c3cccc(OCc4c(C)noc4C)c3)sc2c1
- IC50 [1]: 3.67 µM (active)
- IC50 [2]: 4.78 µM (active)
- IC50 [3]: > 100 µM (inactive)
- IC50 [4]: > 100 µM (inactive)

Compound: O=C(c1cc([N+](=O)[O-])ccc1N1CCOCC1)N1CCN(c2ccccc2)CC1
- EC50 [5]: 501 nM (active)
- IC50 [6]: > 67.5 µM (inactive)
- EC50 [7]: < 100 nM (active)
- EC50 [8]: < 104 nM (active)
- EC50 [9]: 681 nM (active)
- EC50 [10]: 738 nM (active)
- IC50 [11]: > 67.5 µM (inactive)
- AC50 [12]: 3.76 µM (active)
- EC50 [13]: 1.2 µM (inconclusive)
- EC50 [14]: 959 nM (active)
- EC50 [15]: < 100 nM (active)
- EC50 [16]: 633 nM (inconclusive)
- EC50 [17]: 309 nM (active)
- EC50 [18]: 338 nM (inconclusive)

Compound: N#CC1c2ccccc2-n2nncc2CN1Cc1cc(Cl)cc(Cl)c1 (stereo not drawn)
- AC50 [19]: 22.5 µM (active)
- AC50 [20]: 7.48 µM (active)
- AC50 [21]: 15.2 µM (active)
- AC50 [22]: 3.37 µM (active)
- AC50 [23]: 2.36 µM (active)
- AC50 [12]: 10.2 µM (active)
- IC50 [24]: 5.8 µM (active)
- AC50 [25]: 2.45 µM (active)
- AC50 [26]: 6.5 µM (active)

Compound: c1ccc(CN2CCC3(CCCc4ccccc43)CC2)cc1
- AC50 [27]: 31.6 µM (inconclusive)
- AC50 [28]: inconclusive
- AC50 [29]: 10 µM (inconclusive)

Compound: Cc1cccc(/C=N\N=C\c2cccc(C)c2)c1
- IC50 [1]: 7.09 µM (active)
- IC50 [2]: 27.6 µM (active)
- IC50 [3]: 24.6 µM (active)
- IC50 [4]: 47 µM (active)

Compound: CN(C)[C@@H]1C(O)=C(C(N)=O)C(=O)[C@@]2(O)C(O)=C3C(=O)c4c(O)ccc(Cl)c4[C@@](C)(O)[C@H]3C[C@@H]12 [CHLORTETRACYCLINE HYDROCHLORIDE]
- AC50 [19]: 19.8 µM (active)
- AC50 [23]: 0.93 µM (active)
- EC50 [30]: < 60 nM (active)
- EC50 [31]: 148 nM (active)
